Reference: patent US20060223814A1, “Nk-2 antagonist basic linear compounds and formulations containing them” (priority 2003, published 2006)

Target: T1, human NK-2 receptor (Homo sapiens, UniProt P21452)
T1 construct: expressed in transfected cells; host or cells: Chinese hamster ovary (CHO) cells, membranes
T1 sequence (P21452 1-398): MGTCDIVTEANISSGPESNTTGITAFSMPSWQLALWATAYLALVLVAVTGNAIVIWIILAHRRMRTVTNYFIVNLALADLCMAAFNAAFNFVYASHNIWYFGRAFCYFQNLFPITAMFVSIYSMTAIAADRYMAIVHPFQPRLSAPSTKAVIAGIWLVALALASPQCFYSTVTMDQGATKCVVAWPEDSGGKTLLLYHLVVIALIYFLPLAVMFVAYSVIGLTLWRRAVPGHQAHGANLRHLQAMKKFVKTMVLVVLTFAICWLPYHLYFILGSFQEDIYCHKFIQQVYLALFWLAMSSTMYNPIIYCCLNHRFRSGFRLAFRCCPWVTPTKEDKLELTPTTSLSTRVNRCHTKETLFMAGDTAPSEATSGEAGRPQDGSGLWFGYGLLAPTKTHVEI
Assay: Binding test on membranes of CHO cells transfected with the human ileum NK-2 receptor, radioligand NKA in competition
Conditions: CHO cell membranes, radioligand NKA 100 pM, incubation 30 min., 20° C.; for Ki: read-out: pKi (affinity to the human NK-2 receptor) (converted)
Method: Assessment of the antagonist activity on NK-2 receptors was performed with binding and functional tests according to prior descriptions in the literature for NK-2 antagonists.
In particular, affinity of the compounds for the human NK-2 receptor was assessed in a binding test using membranes of Chinese hamster ovary (CHO) cells, transfected with the NK-2 receptor of human ileum and the radioligand ['251]NKA (Amersham, aspecific activity 2000 Ci/mmol) at a concentration of 100 pM in competition studies. The substances under examination were tested in a concentration range from 0.01 nM to 10 mM. At the end of incubation (30 min., 20° C.) the samples were filtered and the radioactivity was determined using a gamma-counter.
The data in table 1 were obtained for some compounds of general formula (I) and concern the values of affinity to the human NK-2 receptor: […]

| Compound | Ki | pKi (affinity to the human NK-2 receptor) |
| --- | --- | --- |
| CN(C)CCCNC(=O)C=C[C@@H](Cc1ccccc1)NC(=O)C1(NC(=O)c2cc3ccccc3s2)CCCC1 [Example 46, (R) Benzo[b]thiophene-2-carboxylic acid {1-[1-benzyl-3-(3-dimethylamino-propylcarbamoyl)-allylcarbamoyl]-cyclopentyl)-amide] | 0.631 nM |  |
| O=C(NC1(C(=O)N[C@@H](CCCN2CCC(Cc3ccccc3)CC2)Cc2ccccc2)CCCC1)c1cc2ccccc2s1 [Example 50, (S) Benzo[b]thiophene-2-carboxylic acid {1-[1-benzyl-4-(4-benzyl-piperidin-1-yl)-butylcarbamoyl]-cyclopentyl}-amide] | 0.126 nM |  |
| Cc1ccc2cc(C(=O)NC3(C(=O)N[C@@H](CCCN4CCN(C(=O)C5CCOCC5)CC4)Cc4ccccc4)CCCC3)sc2c1 [Example 55, (S) 6-Methyl-benzo[b]thiophene-2-carboxylic acid (1-{1-benzyl-4-[4-(tetrahydro-pyran-4-carbonyl)-piperazin-1-yl]-butylcarbamoyl}-cyclopentyl)-amide] | 0.1 nM |  |
| Cc1ccc2cc(C(=O)NC3(C(=O)N[C@@H](CCCC4CCN(CC5CCOCC5)CC4)Cc4ccccc4)CCCC3)sc2c1 [Example 58, (S) 6-Methyl-benzo[b]thiophene-2-carboxylic acid (1-{1-benzyl-4-[1-(tetrahydro-pyran-4-ylmethyl)-piperidin-4-yl]-butylcarbamoyl}-cyclopentyl)-amide] | 0.126 nM |  |
| (S) 6-Methyl-benzo[b]thiophene-2-carboxylic acid (1-{1-benzyl-4-[4-(2-hydroxy-ethyl)-piperidin-1-yl]-4-oxo-butylcarbamoyl)-cyclopentyl)-amide [Example 53] |  | 8.7 |

Now from value to compound, other results behind:

| Ki | Compound | pKi (affinity to the human NK-2 receptor) |
| --- | --- | --- |
| 0.0794 nM | Cc1ccc2cc(C(=O)NC3(C(=O)N[C@@H](CCC(=O)N4CCN(CC5CCOCC5)CC4)Cc4ccccc4)CCCC3)sc2c1 [Example 51] |  |
| 0.0794 nM | Cc1ccc2cc(C(=O)NC3(C(=O)N[C@@H](CCC(=O)N4CCN(C5CCOCC5)CC4)Cc4ccccc4)CCCC3)sc2c1 [Example 52, (S) 6-Methyl-benzo[b]thiophene-2-carboxylic acid (1-{1-benzyl-4-oxo-4-[4-(tetrahydro-pyran-4-yl)-piperazin-1-yl]-butylcarbamoyl}-cyclopentyl)amide] |  |
| 0.0501 nM | Cc1ccc2cc(C(=O)NC3(C(=O)N[C@@H](CCCN4CCN(CC5CCOCC5)CC4)Cc4ccccc4)CCCC3)sc2c1 [Example 54, (S) 6-Methyl-benzo[b]thiophene-2-carboxylic acid (1-{1-benzyl-4-[4-(tetrahydro-pyran-4-ylmethyl)-piperazin-1-yl]-butylcarbamoyl}-cyclopentyl)-amide] |  |
| 0.501 nM | Cc1ccc2cc(C(=O)NC3(C(=O)N[C@@H](COCCC4CCN(CC5CCOCC5)CC4)Cc4ccccc4)CCCC3)sc2c1 [Example 62] |  |
